In patent US5734014A, “Elafin derivative” (Tsumura & Co., priority 1992, dated 1998):

What was measured:
endotoxin-treated mice = test: Test 3: survival rate in mouse endotoxin shock model; assay type: in vivo, ICR male mice; conditions: test substance i.v. four times, survivors/10 mice
Protocol: Using a mouse endotoxin shock model, effects of the elafin derivative according to this invention on the survival rate were investigated while using natural elafin and urinastatin, which is a urinary trypsin inhibitor having anti-elastase action, as comparative substances. After endotoxin was administered at 6 mg/Kg to the caudal veins of ten 7 weeks-old ICR male mice (CHARLES RIVER JAPAN, INC.) in each group, the mice were administered with one of the test substance. Their survival rate was observed along the passage of time. The test substance was administered to the caudal veins of the mice four times in total, that is, 10 minutes before the administration of endotoxin and 3 hours, 6 hours and 12 hours after its administration.
Employed as the test substances were natural elafin, the elafin derivative according to the present invention in which the methionine at the 25th had been modified to leucine (hereinafter called "L-elafin") and urinastatin ("MIRACLID"™;product of MOCHIDA PHARMACEUTICAL CO., LTD.; hereinafter called "UTI").
Natural elafin and L-elafin were each dissolved in a buffer of 20 mM sodium acetate physiological saline, in which 1% bovine serum albumin had been added, whereas UTI was dissolved in the physiological saline.
As a control, a buffer of 20 mM sodium acetate physiological saline, in which 1% bovine serum albumin had been added, was used.

elastase = test: Elastase inhibiting activity of purified recombinant elafin (Referential Examples 1 and 2); assay type: biochemical; conditions: elafin produced by Escherichia coli, purified by reverse phase HPLC
neutrophilic elastase = target: T1, neutrophilic elastase (Homo sapiens, UniProt P08246); test: Test 1: neutrophilic elastase inhibiting activity of non-oxidized and oxidized elafins (AAPV-pNA substrate); assay type: biochemical
T1 construct: purchased Elastin Products Co., Inc
T1 sequence (P08246 30-267): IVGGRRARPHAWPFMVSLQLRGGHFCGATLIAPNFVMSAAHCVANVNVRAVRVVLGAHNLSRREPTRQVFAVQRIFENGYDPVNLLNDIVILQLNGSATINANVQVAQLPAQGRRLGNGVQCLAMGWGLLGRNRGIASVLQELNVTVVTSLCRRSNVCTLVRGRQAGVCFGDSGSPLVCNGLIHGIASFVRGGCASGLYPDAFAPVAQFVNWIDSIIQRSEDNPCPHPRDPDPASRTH
Protocol: Natural elafin and the elafin derivatives were oxidized, and variations in their inhibiting activity against neutrophilic elastase were investigated. Oxidative reaction solutions of natural elafin and the elafin derivatives as elastase inhibitors were each prepared by adding 220 μM of H2 O2 and 6 nM of myeloperoxidase (product of Elastin Products Co., Ltd.) to 250 μl of a phosphate buffer (product of TAKARA SHUZO CO., LTD.) which contained 5 μg of the corresponding elafin or elafin derivative, incubating the resulting mixture at 37° C. for 20 minutes and then adding the same volume of a reaction terminating solution (catalase 0.2 mg/ml, 5 mM methionine).
Further, the measurement of elastase activity was conducted as will be described below by using 5-100 μl of the oxidative reaction solution (inhibitor concentration: 10 μg/ml) of natural elafin and the elafin derivatives prepared as described above.

[1] = 12 hrs after administration of endotoxin (6 mg/Kg, caudal vein)
[2] = 14 hrs after administration of endotoxin (6 mg/Kg, caudal vein)
[3] = 16 hrs after administration of endotoxin (6 mg/Kg, caudal vein)
[4] = 18 hrs after administration of endotoxin (6 mg/Kg, caudal vein)
[5] = 20 hrs after administration of endotoxin (6 mg/Kg, caudal vein)
[6] = 22 hrs after administration of endotoxin (6 mg/Kg, caudal vein)
[7] = 24 hrs after administration of endotoxin (6 mg/Kg, caudal vein)
[8] = 26 hrs after administration of endotoxin (6 mg/Kg, caudal vein)
[9] = 28 hrs after administration of endotoxin (6 mg/Kg, caudal vein)
[10] = 30 hrs after administration of endotoxin (6 mg/Kg, caudal vein)
[11] = 36 hrs after administration of endotoxin (6 mg/Kg, caudal vein)
[12] = 48 hrs after administration of endotoxin (6 mg/Kg, caudal vein)

Substance	Survival rate (endotoxin-treated mice; [1])	Survival rate (endotoxin-treated mice; [2])	Survival rate (endotoxin-treated mice; [3])	Survival rate (endotoxin-treated mice; [4])	Survival rate (endotoxin-treated mice; [5])	Survival rate (endotoxin-treated mice; [6])	Survival rate (endotoxin-treated mice; [7])	Survival rate (endotoxin-treated mice; [8])	Survival rate (endotoxin-treated mice; [9])	Survival rate (endotoxin-treated mice; [10])	Survival rate (endotoxin-treated mice; [11])	Survival rate (endotoxin-treated mice; [12])	elastase inhibiting activity (elastase)	stability to oxidation (neutrophilic elastase; general statement of the inventors' findings)	variation in inhibiting activity against neutrophilic elastase by oxidation (neutrophilic elastase; oxidized with 220 μM H2O2 and 6 nM myeloperoxidase, 37° C., 20 minutes, FIG. 3)
Natural elafin: 57-residue elastase inhibitor isolated from psoriatics (SEQ ID NO:2); produced recombinantly in Escherichia coli or yeast (AQEPVKGPVSTKPGSCPIILIRCAMLNPPNRCLKDTDCPGIKKCCEGSCGMACFVPQ)	10/10	10/10	9/10	8/10	5/10	5/10	3/10	2/10	1/10	0/10	0/10	0/10	strong inhibiting activity	unstable to oxidation	significantly decrease
Reduced elafin: elafin in the completely reduced form, before formation of S--S bonds (AQEPVKGPVSTKPGSCPIILIRCAMLNPPNRCLKDTDCPGIKKCCEGSCGMACFVPQ)	–	–	–	–	–	–	–	–	–	–	–	–	did not show any inhibiting activity	–	–
urinastatin (MIRACLID) [UTI, product of MOCHIDA PHARMACEUTICAL CO., LTD]	10/10	10/10	8/10	8/10	4/10	4/10	2/10	1/10	0/10	0/10	0/10	0/10	–	–	–
